Results from ChEMBL document CHEMBL5050844 (2019).

Experiments:
[1] = target: E3 ubiquitin-protein ligase CBL-B (Homo sapiens, UniProt Q13191); experiment: Inhibition of N-terminal Avi-tagged human CBL-B (36 to 427 residues) incubated with 60 nM Src kinase for 1.5 hrs followed by incubation with fluorescently labeled UbcH5B-Ub for 1 hr and measured by TR-FRET assay; type: single protein
[2] = Induction of anti-CD3/CD28 antibodies-stimulated human T cell activation at 4 uM assessed fold increase in IL-2 secretion measured by ELISA assay; type: functional, T cell line
[3] = Induction of anti-CD3/CD28 antibodies-stimulated human T cell activation at 1 uM assessed fold increase in IL-2 secretion measured by ELISA assay; type: functional, T cell line
[4] = Induction of anti-CD3/CD28 antibodies-stimulated human T cell activation at 0.3 uM assessed fold increase in IL-2 secretion measured by ELISA assay; type: functional, T cell line
[5] = Induction of anti-CD3 antibodies-stimulated human T cell activation at 8 uM assessed fold increase in IL-2 secretion measured by ELISA assay; type: functional, T cell line; also: reference of the scale not given here
[6] = Induction of anti-CD3 antibodies-stimulated human T cell activation at 1 uM assessed fold increase in IL-2 secretion measured by ELISA assay; type: functional, T cell line; also: reference of the scale not given here
[7] = Induction of anti-CD3/CD28 antibodies-stimulated human T cell activation at 4 uM assessed fold increase in CD25 expression measured by ELISA assay; type: functional, T cell line
[8] = Induction of anti-CD3/CD28 antibodies-stimulated human T cell activation at 1 uM assessed fold increase in CD25 expression measured by ELISA assay; type: functional, T cell line
[9] = Induction of anti-CD3/CD28 antibodies-stimulated human T cell activation at 0.3 uM assessed fold increase in CD25 expression measured by ELISA assay; type: functional, T cell line
[10] = Induction of anti-CD3 antibodies-stimulated human T cell activation at 8 uM assessed fold increase in CD25 expression measured by ELISA assay; type: functional, T cell line; also: reference of the scale not given here
[11] = Induction of anti-CD3 antibodies-stimulated human T cell activation at 1 uM assessed fold increase in CD25 expression measured by ELISA assay; type: functional, T cell line; also: reference of the scale not given here

Chain of E3 ubiquitin-protein ligase CBL-B (Q13191 whole entry, the tested form may be a part): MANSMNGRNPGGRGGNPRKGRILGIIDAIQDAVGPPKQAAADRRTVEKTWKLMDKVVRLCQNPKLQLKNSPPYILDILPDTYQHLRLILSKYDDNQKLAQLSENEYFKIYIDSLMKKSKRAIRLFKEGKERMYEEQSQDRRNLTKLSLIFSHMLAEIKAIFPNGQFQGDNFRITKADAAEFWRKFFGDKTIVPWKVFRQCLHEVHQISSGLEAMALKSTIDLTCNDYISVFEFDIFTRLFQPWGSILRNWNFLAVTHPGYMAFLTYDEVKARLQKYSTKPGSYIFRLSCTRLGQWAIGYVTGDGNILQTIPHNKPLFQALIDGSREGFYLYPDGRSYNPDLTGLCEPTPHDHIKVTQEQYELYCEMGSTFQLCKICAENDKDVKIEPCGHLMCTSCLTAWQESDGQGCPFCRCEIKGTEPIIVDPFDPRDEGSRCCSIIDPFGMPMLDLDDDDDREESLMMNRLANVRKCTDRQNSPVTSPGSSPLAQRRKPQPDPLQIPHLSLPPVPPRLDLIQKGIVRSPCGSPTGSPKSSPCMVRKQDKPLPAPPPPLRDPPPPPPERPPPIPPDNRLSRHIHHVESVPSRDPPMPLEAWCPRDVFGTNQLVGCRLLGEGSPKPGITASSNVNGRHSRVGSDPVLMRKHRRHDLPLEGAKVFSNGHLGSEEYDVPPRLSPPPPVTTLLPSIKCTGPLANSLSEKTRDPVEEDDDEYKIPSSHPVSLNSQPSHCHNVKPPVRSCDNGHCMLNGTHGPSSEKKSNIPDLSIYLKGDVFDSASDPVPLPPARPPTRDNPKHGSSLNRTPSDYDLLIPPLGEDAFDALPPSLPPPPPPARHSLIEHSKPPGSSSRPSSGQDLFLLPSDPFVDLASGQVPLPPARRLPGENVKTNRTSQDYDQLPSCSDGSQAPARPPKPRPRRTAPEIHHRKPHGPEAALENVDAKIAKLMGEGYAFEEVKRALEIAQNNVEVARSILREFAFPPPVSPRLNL

Row | Compound | IC50 [1] [nM] | fold change (FC) [2] | fold change (FC) [3] | fold change (FC) [4] | fold change (FC) [5] | fold change (FC) [6] | fold change (FC) [7] | fold change (FC) [8] | fold change (FC) [9] | fold change (FC) [10] | fold change (FC) [11]
1 | CN1CC2CCC(C1)N2c1cc2c(c(C(F)(F)F)c1)CN(c1cccc([C@@](C)(F)C(F)(F)c3nncn3C)c1)C2=O | < 100 | >=7.5 | >=7.5 | 5 | >=0.201 | >=0.201 | 1.51 | 1.51 | 1.31 | >=1.001 | >=1.001
2 | C[C@H](Cc1nncn1C)c1cccc(N2Cc3c(cc(C(C)(C)O)cc3C(F)(F)F)C2=O)c1 | < 100 | 5 | 2.51 | >=7.5 | 0.151 | 0.101 | 1.31 | 1.01 | >=1.76 | 0.801 | >=1.001
3 | Cn1cnnc1CC1(c2cccc(N3Cc4c(cc(CN5CC(C)(F)C5)cc4C(F)(F)F)C3=O)c2)COC1 | < 100 | >=7.5 | >=7.5 | >=7.5 | >=0.201 | >=0.201 | 1.51 | 1.51 | 1.31 | >=1.001 | >=1.001
4 | C[C@H]1CN(C)CCN1c1cc2c(c(C(F)(F)F)c1)CN(c1cccc([C@@](C)(F)C(F)(F)c3nncn3C)c1)C2=O | < 100 | >=7.5 | 5 | 1.01 | >=0.201 | 0.101 | 1.31 | 1.01 | 1.01 | >=1.001 | >=1.001
5 | C[C@H](Cc1nncn1C)c1cccc(N2Cc3c(cc(C(=O)N4CC(O)C4)cc3C(F)(F)F)C2=O)c1 | < 100 | >=7.5 | 2.51 | 1.01 | 0.151 | 0.051 | 1.31 | 1.01 | 1.01 | >=1.001 | 0.801
6 | C[C@H](Cc1nncn1C)c1cccc(N2Cc3c(cc(-c4ccn[nH]4)cc3C(F)(F)F)C2=O)c1 | < 100 | >=7.5 | 5 | 2.51 | >=0.201 | >=0.201 | 1.31 | 1.31 | 1.01 | >=1.001 | >=1.001
7 | COc1ccc(C(=O)Nc2cccc([C@H](C)Sc3nncn3C)c2)nc1C1CC1 | < 100 | 2.51 | 1.01 | 1.01 | 0.101 | <=0.05 | 1.01 | 1.01 | 1.01 | >=1.001 | 0.601
8 | Cc1cc(C(=O)Nc2cccc(C3(Cc4nncn4C)COC3)c2)nc(C2CCC2)n1 | < 100 | >=7.5 | 5 | 1.01 | >=0.201 | 0.151 | 1.31 | 1.01 | 1.01 | >=1.001 | 0.801
9 | Cn1cnnc1CC1(c2cccc(NC(=O)c3cc(C4CC4)nc(C(F)(F)F)n3)c2)COC1 | < 100 | >=7.5 | >=7.5 | 2.51 | >=0.201 | 0.151 | 1.51 | 1.31 | 1.01 | >=1.001 | 0.801
10 | COc1cc(C(=O)Nc2cccc([C@H](C)Sc3nncn3C)c2)nc(C(F)(F)F)c1 |  | 5 | 2.51 | 2.51 | >=0.201 | 0.051 | >=1.76 | 1.51 | 1.01 | 0.801 | 0.801
11 | C[C@H](Sc1nncn1C)c1cccc(NC(=O)c2cccc(C(C)(F)F)n2)c1 |  | 2.51 | <=1 | <=1 | 0.151 | <=0.05 | >=1.76 | 1.51 | 1.01 | >=1.001 | 0.801
12 | Cc1cc(C(=O)Nc2cc([C@H](C)Sc3nncn3C)ccn2)nc(C(F)(F)F)c1 |  | 1.01 | 1.01 | 1.01 | 0.051 | <=0.05 | 1.01 | <=1 | <=1 | 0.801 | <=0.6
13 | C[C@H](Cc1nncn1C)c1cccc(NC(=O)c2ccn3nccc3n2)c1 |  | 2.51 | 1.01 | 1.01 | 0.151 | 0.051 | 1.01 | 1.01 | 1.01 | >=1.001 | 0.601

The next lines start with results.

Row | IC50 [1] [nM] | Compound | fold change (FC) [2] | fold change (FC) [3] | fold change (FC) [4] | fold change (FC) [5] | fold change (FC) [6] | fold change (FC) [7] | fold change (FC) [8] | fold change (FC) [9] | fold change (FC) [10] | fold change (FC) [11]
14 | < 100 | C[C@H](Cc1nncn1C)c1cccc(N2Cc3c(cc([C@@H](C)N4CC(O)C4)cc3C(F)(F)F)C2=O)c1 | >=7.5 | 5 | 2.51 | >=0.201 | >=0.201 | 1.31 | 1.31 | 1.01 | >=1.001 | 0.801
15 | < 100 | C[C@H](Cc1nncn1C)c1cccc(NC(=O)c2ccnc(C3CC3)n2)c1 | >=7.5 | 5 | 2.51 | >=0.201 | >=0.201 | 1.51 | 1.31 | 1.01 | >=1.001 | >=1.001
16 | < 100 | Cn1cnnc1CC1(c2cccc(N3Cc4c(cccc4C(F)(F)F)C3=O)c2)CC1 | 5 | 2.51 | 2.51 | >=0.201 | 0.051 | 1.01 | 1.01 | <=1 | >=1.001 | >=1.001
17 | < 100 | Cc1ccc(C(=O)Nc2cccc([C@H](C)Sc3nncn3C)c2)nc1C1CC1 | >=7.5 | 2.51 | 1.01 | 0.151 | <=0.05 | 1.01 | 1.01 | 1.01 | 0.801 | 0.601
18 | < 100 | C[C@H](Cc1nncn1C)c1cccc(N2Cc3c(cc(C4CC4)cc3C(F)(F)F)C2=O)c1 | 2.51 | 1.01 | 1.01 | >=0.201 | >=0.201 | 1.31 | 1.01 | 1.01 | >=1.001 | 0.801
19 | < 100 | C[C@H]1C=CCN1Cc1cc2c(c(C(F)(F)F)c1)CN(c1cccc(C3(Cc4nncn4C)COC3)c1)C2=O | >=7.5 | >=7.5 | >=7.5 | >=0.201 | >=0.201 | 1.51 | 1.51 | 1.31 | >=1.001 | >=1.001
20 | < 100 | CC(c1cc2c(c(C(F)(F)F)c1)CN(c1cccc([C@H]3C[C@H]3c3nncn3C)c1)C2=O)N1CC[C@H](F)C1 (stereo partly specified) | >=7.5 | >=7.5 | 2.51 | >=0.201 | >=0.201 | 1.51 | 1.51 | 1.31 | >=1.001 | >=1.001
